“Also recorded” adds a separate entry of the source.
Key:
[1] = test system: THP-1 cells polarized to M2-like macrophages; assay: Reprogramming of M2-like THP-1 macrophages, marker gene analysis by qPCR; type: cell-based, human
Procedure: THP-1 cells were seeded into 96-well plates at a density of 60,000 cells/well. Cells were differentiated into unpolarized macrophages by 48 hours incubation with 200 nM PMA followed by 24 hours incubation in fresh RPMI medium. […] Cultures were maintained at 37° C. in a humidified 5% CO2 incubator.
Total RNA was isolated from 1×10^5 —2×10^5 macrophages using a Quick-RNA™ MicroPrep kit (Zymo Research, Irvine, CA) according to the manufacturer-recommended protocol. […] IL-6, CXCL10, IFNα, IFN-γ and CD86 were used as markers for an M1 phenotype, while CCL18, CD206, CD163 and Arg1 were employed as markers for the M2 phenotype. IL-1β, PDGFβ, MMP9 and TIMP 3 were measured as indicators of a profibrotic phenotype. IRAK-4 was used as an indicator of TLR7 stimulation. To control for specificity of the amplification products, a melting curve analysis was performed. […] Each sample was analyzed independently in triplicate for each marker.
Primarily, human monocytic (THP-1) cells were induced to the M2-like phenotype using the methods and materials previously described. In particular, THP-1 cells were seeded into 96-well plates at a density of 60,000 cells/well. Cells were differentiated into unpolarized macrophages by 48 h incubation with 200 nM PMA followed by 24 hours incubation in fresh RPMI medium. The resulting macrophages were polarized to an M2-like phenotype by incubation with 20 ng/ml IL-4, 20 ng/ml IL-13, and 5 ng/mL IL-6 for 48 h. Cultures were maintained at 37° C. in a humidified 5% CO2 incubator.
In addition to the nonconjugated TLR7 agonist, conjugated compounds of the present disclosure were likewise evaluated. […] The cells were subsequently harvested for gene analysis by qPCR and the relative expression of CCL18 (FIG. 14A), CD206 (FIG. 14B), and IL-1β (FIG. 14C) analyzed.

[2] = test system: M2-induced THP-1 macrophages; assay: Secreted CCL18 and IL-1β in THP-1 supernatants by ELISA; type: cell-based, human
Procedure: FIGS. 6A-6D show graphical data representative of various marker levels measured from M2-induced THP-1 macrophages treated with different concentrations of drugs for 48 hours (FIGS. 6A and 6B) or for 2 hours, then displaced with fresh medium and cultured for the remaining 46 hours (FIGS. 6C and 6D). In both cases, cell supernatants were collected and secreted CCL18 protein and IL-1β was detected by ELISA.
Further, to ensure that the above mRNA analyses accurately reflected the levels of profibrotic cytokines produced by IL-4, IL-6 plus IL-13 stimulated THP-1 cells, the concentrations of CCL18 and IL-1β polypeptides in the THP-1 supernatants were quantitated by ELISA assay.
(§1) CCL18 and IL-1β were quantified in induced THP-1 cell supernatants using a human DuoSet ELISA Development System (R&D Systems Europe, Abingdon, UK; #DY394-05) and an IL-1 beta Human ELISA Kit (Thermo Fisher Scientific, Waltham, MA; #BMS224-2) as described by manufactures.

[3] = Stability during incubation in culture media; type: physicochemical; conditions: 37° C. in the culture media, 48 hours
Procedure: Indeed, Compound 1B retained the original structure after 48 hours incubation.

[4] = test system: BM-induced experimental pulmonary fibrosis in mice; assay: BM-induced pulmonary fibrosis: markers in bronchoalveolar lavage cells/fluid (qPCR, ELISA); type: in vivo
Procedure: Fresh water and folate-deficient diet were freely available.
Bronchoalveolar lavage fluid (BALF) was then analyzed to determine how the targeted TLR7 agonist works. BALF samples were centrifuged at 1500 rpm for 5 min at 4° C. and the supernatant was aliquoted and stored at −80° C. for cytokine/chemokine analyses. Cell pellets were resuspended and cultured in pre-warmed RPMI 1640 medium for 2 hours and then washed 3× with pre-warmed PBS prior to harvesting for qPCR assay. The right lung was then tied with a nylon string and used for subsequent analysis of hydroxyproline content. The left lung was inflated with 1 ml PBS using the inserted syringe and transferred to 10% formalin solution for subsequent histological analyses.
as §1, with “manufactures. BALF samples were analyzed for mouse IFN-γ using ELISA MAX™ Deluxe (Biolegend, San Diego, CA; #430804).” for “manufactures.”

[5] = test system: M2-induced human monocyte-derived macrophages; assay: Reprogramming of M2-induced human monocyte-derived macrophages with FA-glucosamine competition; type: cell-based; conditions: 100 nM, 2 hours then 46 hours without drug
Procedure: Changes in both sets of cytokines were inhibited by blockade of unoccupied folate receptors with excess FA-glucosamine (2+46 h, competition).

[6] = test system: healthy mice; assay: Plasma cytokine levels in healthy mice after tail vein injection; type: in vivo
Procedure: (FIGS. 20A-C) Measurement of plasma IL-6 (FIG. 20A), IFNα (FIG. 20B) and TNFα (FIG. 20C) (n=3). (FIGS. 20D-F). The effect of drug concentration on plasma levels of IL-6 (FIG. 20D), IFNα (FIG. 20E), and TNFα (FIG. 20F) was determined at 1.5 h, 1 h, or 1 h after treatment, respectively (n=2) (FIG. 20G).

[7] = 2 hours with drug, then drug-free medium
[8] = incubated 2 hours, harvested at once or after a further 46 hours
[9] = incubated continuously for 48 hours, ELISA
[10] = BALF cells day 21, i.v. every other day from day 10

**Q.** What does the source list for `CCCCc1nc2c(N)nc3ccccc3c2n1CC(C)(C)OC(=O)OCCSSCC(NC(=O)CCC(NC(=O)c1ccc(NCc2cnc3nc(N)[nH]c(=O)c3n2)cc1)C(=O)O)C(=O)O` (centres unmarked) [Compound 1B]?
**A.** TNFα induction [1, 7]: dramatically improved; potency relative to Compound 1A [1, 7]: superior potency relative to Compound 1A; marker changes (FIGS. 3A-3F) compared with nontargeted TLR7 agonist ([1]; M2-induced THP-1, 48 hours incubation): same qualitative changes were observed, only the magnitude of the impact of Compound 1B was somewhat reduced; PDGFα ([1]; data not shown): no significant difference; M1-like phenotype (CD86 mRNA, TNFα levels) [1, 8]: upregulated; profibrotic/M2-type markers (CCL18, CD206, IL-1β, PDGFβ mRNA) [1, 8]: downregulated profibrotic/M2-type markers of macrophages more than Compound 1A; reduction of secreted CCL18 and IL-1β, comparison of the two agonists ([2]; drug exposure limited to 2 hours, then 46 hours fresh medium): superior; secreted CCL18 protein [2, 9]: reductions; secreted IL-1β [2, 9]: reductions; stability during incubation [3]: remained stable; CD86 transcripts (antifibrotic marker, qPCR) ([4]; BALF cells day 21): upregulated; also recorded: elevated; IRAK-4 ([4]; BALF cells day 21): upregulated; also recorded: upregulation; Arg1 (profibrotic marker, qPCR) [4, 10]: downregulated; also recorded: suppressed; MMP9 (profibrotic marker, qPCR) [4, 10]: downregulated; also recorded: suppressed; TIMP 3 (profibrotic marker, qPCR) [4, 10]: downregulated; also recorded: suppressed; IFN-γ concentration (ELISA of lavage fluid) ([4]; day 21): upregulated; also recorded: elevated; total number of BALF cells ([4]; different doses): decreased in a dose-dependent manner; downregulation of biomarkers in presence of excess FA-glucosamine (competitor) [5]: blocked; systemic cytokine release (plasma IL-6, IFNα, TNFα) ([6]; 10 nmol tail vein): does not; inflammatory cytokine release, dose comparison ([6]; effect of drug concentration): stimulates less inflammatory cytokine release than half the dose of Compound 1A

From patent publication US12397059B2, “Compounds and methods for the treatment and prevention of fibrotic disease states and cancer” (Purdue Research Foundation, priority 2019, dated 2025)
